In the kinase profiling compilation of Christmann-Franck et al. (2016):
Values joined by “and” are separate entries in the source; they are usually repeats but may differ in a detail not shown here. Equal entries are not always repeated.

Experiments:
Experiment in all cases: radiometric filter-binding kinase assay, Kinase HotSpot
Settings in all cases: compound 0.5 µM; ATP 10 µM
MYO3B (human) = MYO3B (human) (UniProt Q8WXR4)
PBK (human) = PBK (human) (UniProt Q96KB5)
MST1R (human) = MST1R (human) (UniProt Q04912)
PRKX (human) = PRKX (human) (UniProt P51817)
TEK (human) = TEK (human) (UniProt Q02763)
ULK3 (human) = ULK3 (human) (UniProt Q6PHR2)
Chain of ULK3 (human) (Q6PHR2 whole entry, looked up): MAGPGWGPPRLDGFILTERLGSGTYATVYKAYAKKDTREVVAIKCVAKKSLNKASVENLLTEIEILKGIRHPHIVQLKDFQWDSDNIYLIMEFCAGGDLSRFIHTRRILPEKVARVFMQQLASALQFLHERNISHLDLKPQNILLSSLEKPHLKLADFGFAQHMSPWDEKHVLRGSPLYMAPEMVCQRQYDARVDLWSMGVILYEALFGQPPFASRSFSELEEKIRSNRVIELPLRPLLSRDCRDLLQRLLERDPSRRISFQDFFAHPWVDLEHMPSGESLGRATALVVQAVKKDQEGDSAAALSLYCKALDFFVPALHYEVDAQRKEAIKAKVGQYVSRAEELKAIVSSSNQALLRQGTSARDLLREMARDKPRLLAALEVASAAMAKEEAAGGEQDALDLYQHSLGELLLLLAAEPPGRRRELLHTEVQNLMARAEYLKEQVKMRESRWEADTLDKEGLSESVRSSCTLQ

PRKG1 (human) = PRKG1 (human) (UniProt Q13976)
JAK2 JH1 JH2 (human) = JAK2 JH1 JH2 (human) (UniProt O60674)
CSF1R (human) = CSF1R (human) (UniProt P07333)
EPHA6 (human) = EPHA6 (human) (UniProt Q9UF33)
TEC (human) = TEC (human) (UniProt P42680)
MAP4K2 (human) = MAP4K2 (human) (UniProt Q12851)
CSNK1D (human) = CSNK1D (human) (UniProt P48730)
Chain of CSNK1D (human) (P48730 whole entry, looked up): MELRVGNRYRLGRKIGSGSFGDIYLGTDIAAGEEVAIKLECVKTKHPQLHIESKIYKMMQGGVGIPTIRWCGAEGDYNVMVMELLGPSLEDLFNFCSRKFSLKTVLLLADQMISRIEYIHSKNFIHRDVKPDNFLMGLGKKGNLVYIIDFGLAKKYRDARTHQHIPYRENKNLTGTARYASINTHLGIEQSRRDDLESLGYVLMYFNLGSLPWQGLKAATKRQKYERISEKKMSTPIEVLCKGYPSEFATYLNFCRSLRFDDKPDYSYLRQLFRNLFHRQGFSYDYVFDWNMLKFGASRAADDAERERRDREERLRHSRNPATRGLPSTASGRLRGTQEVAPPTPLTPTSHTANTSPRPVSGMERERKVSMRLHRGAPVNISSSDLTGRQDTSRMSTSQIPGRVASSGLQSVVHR

CHUK (human) = CHUK (human) (UniProt O15111)
PRKCE (human) = PRKCE (human) (UniProt Q02156)
STK38 (human) = STK38 (human) (UniProt Q15208)
OXSR1 (human) = OXSR1 (human) (UniProt O95747)
IGF1R (human) = IGF1R (human) (UniProt P08069)
[1] = target: JAK1 JH1 catalytic (human) (UniProt P23458)
NEK2 (human) = NEK2 (human) (UniProt P51955)
Chain of NEK2 (human) (P51955 whole entry, looked up): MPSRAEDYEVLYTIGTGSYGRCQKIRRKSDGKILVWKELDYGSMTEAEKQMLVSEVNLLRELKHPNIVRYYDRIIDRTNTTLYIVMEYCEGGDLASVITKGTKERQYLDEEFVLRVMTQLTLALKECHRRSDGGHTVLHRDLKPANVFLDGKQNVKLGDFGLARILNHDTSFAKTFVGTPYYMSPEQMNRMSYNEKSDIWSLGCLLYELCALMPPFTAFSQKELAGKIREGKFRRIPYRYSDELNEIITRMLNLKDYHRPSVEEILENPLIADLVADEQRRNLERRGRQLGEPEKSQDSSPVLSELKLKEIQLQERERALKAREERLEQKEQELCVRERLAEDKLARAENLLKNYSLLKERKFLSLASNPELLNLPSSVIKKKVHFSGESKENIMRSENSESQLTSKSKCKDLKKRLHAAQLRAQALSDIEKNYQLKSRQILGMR

PRKACG (human) = PRKACG (human) (UniProt P22612)
Chain of PRKACG (human) (P22612 whole entry, looked up): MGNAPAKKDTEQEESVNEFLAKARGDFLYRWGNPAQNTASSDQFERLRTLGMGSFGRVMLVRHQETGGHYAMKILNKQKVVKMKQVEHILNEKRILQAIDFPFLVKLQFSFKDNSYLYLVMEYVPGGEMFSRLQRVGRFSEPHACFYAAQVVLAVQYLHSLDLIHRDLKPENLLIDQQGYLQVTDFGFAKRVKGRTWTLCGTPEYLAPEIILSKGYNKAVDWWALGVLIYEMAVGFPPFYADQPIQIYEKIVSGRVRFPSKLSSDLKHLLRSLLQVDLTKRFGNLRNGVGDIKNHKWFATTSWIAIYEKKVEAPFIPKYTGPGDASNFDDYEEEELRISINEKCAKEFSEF

TLK2 (human) = TLK2 (human) (UniProt Q86UE8)
AXL (human) = AXL (human) (UniProt P30530)
DYRK2 (human) = DYRK2 (human) (UniProt Q92630)
CLK1 (human) = CLK1 (human) (UniProt P49759)
BMX (human) = BMX (human) (UniProt P51813)
Chain of BMX (human) (P51813 whole entry, looked up): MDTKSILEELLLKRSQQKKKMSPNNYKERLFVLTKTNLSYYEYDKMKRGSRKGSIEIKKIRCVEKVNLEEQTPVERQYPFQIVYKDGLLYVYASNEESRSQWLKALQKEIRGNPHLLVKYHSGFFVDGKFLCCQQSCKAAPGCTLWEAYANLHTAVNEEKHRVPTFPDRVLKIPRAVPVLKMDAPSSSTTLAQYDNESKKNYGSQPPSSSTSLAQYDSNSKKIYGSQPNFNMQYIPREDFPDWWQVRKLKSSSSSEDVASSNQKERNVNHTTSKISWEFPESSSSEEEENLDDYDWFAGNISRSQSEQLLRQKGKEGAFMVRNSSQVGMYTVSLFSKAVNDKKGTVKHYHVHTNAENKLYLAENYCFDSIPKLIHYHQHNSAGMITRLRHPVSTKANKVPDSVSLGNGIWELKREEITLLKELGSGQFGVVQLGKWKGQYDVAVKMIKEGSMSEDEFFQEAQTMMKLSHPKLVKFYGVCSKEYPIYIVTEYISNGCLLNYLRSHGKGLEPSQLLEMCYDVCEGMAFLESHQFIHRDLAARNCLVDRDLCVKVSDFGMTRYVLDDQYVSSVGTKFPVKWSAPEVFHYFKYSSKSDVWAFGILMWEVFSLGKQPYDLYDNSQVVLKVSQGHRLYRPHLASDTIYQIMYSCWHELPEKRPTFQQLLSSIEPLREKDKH

EPHB4 (human) = EPHB4 (human) (UniProt P54760)
MARK4 (human) = MARK4 (human) (UniProt Q96L34)
ABL2 (human) = ABL2 (human) (UniProt P42684)
Chain of ABL2 (human) (P42684 whole entry, looked up): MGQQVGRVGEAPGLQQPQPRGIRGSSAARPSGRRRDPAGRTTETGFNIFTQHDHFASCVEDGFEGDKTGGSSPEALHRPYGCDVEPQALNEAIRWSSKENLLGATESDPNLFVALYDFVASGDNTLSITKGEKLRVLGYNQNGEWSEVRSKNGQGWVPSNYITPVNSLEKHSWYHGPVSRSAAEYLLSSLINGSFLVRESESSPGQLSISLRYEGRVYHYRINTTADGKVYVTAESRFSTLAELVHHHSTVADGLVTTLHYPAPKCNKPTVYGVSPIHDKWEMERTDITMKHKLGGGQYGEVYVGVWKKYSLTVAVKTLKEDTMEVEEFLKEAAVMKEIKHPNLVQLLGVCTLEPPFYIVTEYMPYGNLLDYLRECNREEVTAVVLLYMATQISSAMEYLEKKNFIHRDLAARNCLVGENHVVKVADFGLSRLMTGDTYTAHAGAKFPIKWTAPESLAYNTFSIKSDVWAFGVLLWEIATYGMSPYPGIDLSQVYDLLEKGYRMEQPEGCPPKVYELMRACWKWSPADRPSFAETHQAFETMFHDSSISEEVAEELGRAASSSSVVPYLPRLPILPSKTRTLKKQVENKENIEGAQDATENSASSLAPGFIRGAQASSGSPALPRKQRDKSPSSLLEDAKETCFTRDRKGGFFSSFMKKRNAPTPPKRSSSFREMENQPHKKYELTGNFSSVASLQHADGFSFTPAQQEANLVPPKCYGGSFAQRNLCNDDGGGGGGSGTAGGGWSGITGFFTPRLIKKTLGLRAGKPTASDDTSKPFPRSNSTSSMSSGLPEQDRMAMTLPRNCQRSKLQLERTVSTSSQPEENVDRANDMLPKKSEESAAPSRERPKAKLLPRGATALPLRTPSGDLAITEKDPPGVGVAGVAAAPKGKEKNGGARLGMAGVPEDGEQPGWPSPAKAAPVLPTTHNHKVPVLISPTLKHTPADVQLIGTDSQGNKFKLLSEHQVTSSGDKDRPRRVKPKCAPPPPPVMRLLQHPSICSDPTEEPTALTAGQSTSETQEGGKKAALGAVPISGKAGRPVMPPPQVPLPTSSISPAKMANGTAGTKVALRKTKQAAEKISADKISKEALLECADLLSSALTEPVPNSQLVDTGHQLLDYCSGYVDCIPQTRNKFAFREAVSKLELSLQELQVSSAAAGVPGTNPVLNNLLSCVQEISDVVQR

EPHB2 (human) = EPHB2 (human) (UniProt P29323)
PRKG2 (human) = PRKG2 (human) (UniProt Q13237)
BRAF (human) = BRAF (human) (UniProt P15056)
CHEK2 (human) = CHEK2 (human) (UniProt O96017)
DYRK1A (human) = DYRK1A (human) (UniProt Q13627)
MAP3K3 (human) = MAP3K3 (human) (UniProt Q99759)
Chain of MAP3K3 (human) (Q99759 whole entry, looked up): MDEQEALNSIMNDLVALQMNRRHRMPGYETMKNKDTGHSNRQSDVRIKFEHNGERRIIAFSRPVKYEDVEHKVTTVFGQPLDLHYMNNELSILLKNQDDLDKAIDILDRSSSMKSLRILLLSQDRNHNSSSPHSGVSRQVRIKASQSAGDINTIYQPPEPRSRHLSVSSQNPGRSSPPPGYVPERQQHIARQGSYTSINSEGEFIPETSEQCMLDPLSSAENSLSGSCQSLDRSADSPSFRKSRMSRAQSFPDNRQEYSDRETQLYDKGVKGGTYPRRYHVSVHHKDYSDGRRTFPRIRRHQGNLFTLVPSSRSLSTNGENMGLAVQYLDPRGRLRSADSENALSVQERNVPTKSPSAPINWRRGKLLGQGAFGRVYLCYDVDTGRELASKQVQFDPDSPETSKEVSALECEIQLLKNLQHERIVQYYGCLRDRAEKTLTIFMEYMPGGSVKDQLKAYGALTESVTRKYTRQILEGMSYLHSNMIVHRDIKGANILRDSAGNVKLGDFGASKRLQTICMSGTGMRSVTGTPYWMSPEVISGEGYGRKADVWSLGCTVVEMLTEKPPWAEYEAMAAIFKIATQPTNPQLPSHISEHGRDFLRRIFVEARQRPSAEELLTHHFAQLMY

CDK4 CCND1 (human) = CDK4 CCND1 (human) (UniProt P24385+P11802)
ULK2 (human) = ULK2 (human) (UniProt Q8IYT8)
CAMKK2 (human) = CAMKK2 (human) (UniProt Q96RR4)
PRKCI (human) = PRKCI (human) (UniProt P41743)
PAK1 (human) = PAK1 (human) (UniProt Q13153)
GSG2 (human) = GSG2 (human) (UniProt Q8TF76)
MAPK11 (human) = MAPK11 (human) (UniProt Q15759)
Chain of MAPK11 (human) (Q15759 whole entry, looked up): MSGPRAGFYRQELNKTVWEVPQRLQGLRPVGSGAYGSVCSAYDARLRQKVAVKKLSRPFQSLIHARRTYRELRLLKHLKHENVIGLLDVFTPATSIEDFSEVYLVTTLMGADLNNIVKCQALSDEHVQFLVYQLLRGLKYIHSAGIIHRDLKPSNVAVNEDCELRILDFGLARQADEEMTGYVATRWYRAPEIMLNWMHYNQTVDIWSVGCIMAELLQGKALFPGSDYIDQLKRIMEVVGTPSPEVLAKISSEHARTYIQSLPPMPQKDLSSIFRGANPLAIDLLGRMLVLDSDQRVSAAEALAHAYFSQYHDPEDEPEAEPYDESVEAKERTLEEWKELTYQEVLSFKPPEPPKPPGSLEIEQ

Chain of PBK (human) (Q96KB5 whole entry, looked up): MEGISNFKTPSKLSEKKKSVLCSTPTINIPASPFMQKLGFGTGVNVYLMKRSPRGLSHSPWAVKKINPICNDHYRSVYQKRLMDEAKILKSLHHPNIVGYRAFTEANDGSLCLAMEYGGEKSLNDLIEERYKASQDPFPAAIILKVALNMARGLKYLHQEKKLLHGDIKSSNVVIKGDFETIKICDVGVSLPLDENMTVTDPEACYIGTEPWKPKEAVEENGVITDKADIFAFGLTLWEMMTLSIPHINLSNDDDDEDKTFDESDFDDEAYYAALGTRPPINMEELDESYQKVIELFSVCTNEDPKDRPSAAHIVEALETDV

SMILES: Nc1nccc(-c2c(-c3ccc(F)cc3)ncn2C2CCNCC2)n1
- residual activity (MYO3B (human)): 97.9%
- residual activity (PBK (human)): 94.9%
- residual activity (MST1R (human)): 100%
- residual activity (PRKX (human)): 96.8%
- residual activity (TEK (human)): 101%
- residual activity (ULK3 (human)): 95.5%
- residual activity (PRKG1 (human)): 88.2% and 97.7%
- residual activity (JAK2 JH1 JH2 (human)): 99.6%
- residual activity (CSF1R (human)): 100%
- residual activity (EPHA6 (human)): 78%
- residual activity (TEC (human)): 110%
- residual activity (MAP4K2 (human)): 102%
- residual activity (CSNK1D (human)): 1.25%
- residual activity (CHUK (human)): 101%
- residual activity (PRKCE (human)): 105%
- residual activity (STK38 (human)): 99.8%
- residual activity (OXSR1 (human)): 101%
- residual activity (IGF1R (human)): 104%
- residual activity [1]: 104%
- residual activity (NEK2 (human)): 103%
- residual activity (PRKACG (human)): 105%
- residual activity (TLK2 (human)): 95.1%
- residual activity (AXL (human)): 102%
- residual activity (DYRK2 (human)): 95.9%
- residual activity (CLK1 (human)): 98.2%
- residual activity (BMX (human)): 92.9%
- residual activity (EPHB4 (human)): 91.5%
- residual activity (MARK4 (human)): 97.4%
- residual activity (ABL2 (human)): 95.1%
- residual activity (EPHB2 (human)): 103%
- residual activity (PRKG2 (human)): 97.2%
- residual activity (BRAF (human)): 103%
- residual activity (CHEK2 (human)): 101%
- residual activity (DYRK1A (human)): 96.3%
- residual activity (MAP3K3 (human)): 101%
- residual activity (CDK4 CCND1 (human)): 99.9%
- residual activity (ULK2 (human)): 113%
- residual activity (CAMKK2 (human)): 110%
- residual activity (PRKCI (human)): 98.5%
- residual activity (PAK1 (human)): 97.4%
- residual activity (GSG2 (human)): 91.4%

SMILES: COc1cc2ncc(-c3ccccc3)nc2cc1OC
- residual activity (MYO3B (human)): 84.6%
- residual activity (PBK (human)): 85.5%
- residual activity (MST1R (human)): 84.2%
- residual activity (PRKX (human)): 97.4%
- residual activity (TEK (human)): 85.7%
- residual activity (ULK3 (human)): 89.4%
- residual activity (PRKG1 (human)): 77.1% and 96.2%
- residual activity (JAK2 JH1 JH2 (human)): 94.4%
- residual activity (CSF1R (human)): 88.2%
- residual activity (EPHA6 (human)): 90.4%
- residual activity (TEC (human)): 164%
- residual activity (MAP4K2 (human)): 99.2%
- residual activity (CSNK1D (human)): 101%
- residual activity (CHUK (human)): 113%
- residual activity (PRKCE (human)): 87.9%
- residual activity (STK38 (human)): 95.9%
- residual activity (OXSR1 (human)): 100%
- residual activity (IGF1R (human)): 91.1%
- residual activity [1]: 91.5%
- residual activity (NEK2 (human)): 85.3%
- residual activity (PRKACG (human)): 87.6%
- residual activity (TLK2 (human)): 96.3%
- residual activity (AXL (human)): 95.2%
- residual activity (DYRK2 (human)): 95.9%
- residual activity (CLK1 (human)): 102%
- residual activity (BMX (human)): 92.2%
- residual activity (MAPK11 (human)): 95.7%
- residual activity (EPHB4 (human)): 86.4%
- residual activity (MARK4 (human)): 85.3%
- residual activity (ABL2 (human)): 94%
- residual activity (PRKG2 (human)): 83.6%
- residual activity (BRAF (human)): 93.2%
- residual activity (CHEK2 (human)): 94.2%
- residual activity (DYRK1A (human)): 97.2%
- residual activity (MAP3K3 (human)): 90.3%
- residual activity (CDK4 CCND1 (human)): 103%
- residual activity (ULK2 (human)): 113%
- residual activity (CAMKK2 (human)): 114%
- residual activity (PRKCI (human)): 82.1%
- residual activity (PAK1 (human)): 91.3%
- residual activity (GSG2 (human)): 92.1%

SMILES: Cn1nc2c3c(cccc31)C(=O)c1ccccc1-2
- residual activity (MYO3B (human)): 97.7%
- residual activity (PBK (human)): 108%
- residual activity (MST1R (human)): 96.7%
- residual activity (PRKX (human)): 101%
- residual activity (TEK (human)): 98.2%
- residual activity (ULK3 (human)): 94.9%
- residual activity (PRKG1 (human)): 93.7% and 96%
- residual activity (JAK2 JH1 JH2 (human)): 95.9%
- residual activity (CSF1R (human)): 97%
- residual activity (EPHA6 (human)): 87.6%
- residual activity (TEC (human)): 102%
- residual activity (MAP4K2 (human)): 75.4%
- residual activity (CSNK1D (human)): 20.8%
- residual activity (CHUK (human)): 97%
- residual activity (PRKCE (human)): 95.7%
- residual activity (STK38 (human)): 98.5%
- residual activity (OXSR1 (human)): 102%
- residual activity (IGF1R (human)): 95.9%
- residual activity [1]: 110%
- residual activity (NEK2 (human)): 88.2%
- residual activity (PRKACG (human)): 107%
- residual activity (TLK2 (human)): 101%
- residual activity (AXL (human)): 104%
- residual activity (DYRK2 (human)): 99.4%
- residual activity (CLK1 (human)): 92.7%
- residual activity (BMX (human)): 101%
- residual activity (MAPK11 (human)): 109%
- residual activity (EPHB4 (human)): 99.9%
- residual activity (MARK4 (human)): 91.1%
- residual activity (ABL2 (human)): 97.8%
- residual activity (EPHB2 (human)): 104%
- residual activity (PRKG2 (human)): 105%
- residual activity (CHEK2 (human)): 89.8%
- residual activity (DYRK1A (human)): 94.1%
- residual activity (MAP3K3 (human)): 94.4%
- residual activity (CDK4 CCND1 (human)): 98.9%
- residual activity (ULK2 (human)): 109%
- residual activity (CAMKK2 (human)): 74.9%
- residual activity (PRKCI (human)): 98.5%
- residual activity (PAK1 (human)): 98.5%
- residual activity (GSG2 (human)): 53.1%

SMILES: CN([C@@H](Cc1ccc(OS(=O)(=O)c2cccc3cnccc23)cc1)C(=O)N1CCN(c2ccccc2)CC1)S(=O)(=O)c1cccc2cnccc12
- residual activity (MYO3B (human)): 88.5%
- residual activity (PBK (human)): 99.2%
- residual activity (MST1R (human)): 94.4%
- residual activity (PRKX (human)): 109%
- residual activity (TEK (human)): 106%
- residual activity (ULK3 (human)): 98.6%
- residual activity (PRKG1 (human)): 84.2% and 93.6%
- residual activity (JAK2 JH1 JH2 (human)): 96.6%
- residual activity (CSF1R (human)): 95.1%
- residual activity (EPHA6 (human)): 94.9%
- residual activity (TEC (human)): 98.9%
- residual activity (MAP4K2 (human)): 89.5%
- residual activity (CSNK1D (human)): 109%
- residual activity (CHUK (human)): 93.4%
- residual activity (PRKCE (human)): 99.5%
- residual activity (STK38 (human)): 97.2%
- residual activity (OXSR1 (human)): 101%
- residual activity (IGF1R (human)): 105%
- residual activity [1]: 108%
- residual activity (NEK2 (human)): 87.4%
- residual activity (PRKACG (human)): 107%
- residual activity (TLK2 (human)): 100%
- residual activity (AXL (human)): 103%
- residual activity (DYRK2 (human)): 97.7%
- residual activity (CLK1 (human)): 97.3%
- residual activity (BMX (human)): 97.4%
- residual activity (MAPK11 (human)): 98.9%
- residual activity (MARK4 (human)): 98.8%
- residual activity (ABL2 (human)): 98.9%
- residual activity (EPHB2 (human)): 103%
- residual activity (PRKG2 (human)): 99.5%
- residual activity (CHEK2 (human)): 101%
- residual activity (DYRK1A (human)): 102%
- residual activity (MAP3K3 (human)): 96.4%
- residual activity (CDK4 CCND1 (human)): 95.3%
- residual activity (ULK2 (human)): 106%
- residual activity (CAMKK2 (human)): 84.2%
- residual activity (PRKCI (human)): 93.8%
- residual activity (PAK1 (human)): 95.7%
- residual activity (GSG2 (human)): 94.7%

SMILES: Oc1ccc(Nc2nc(-c3ccc(Cl)cc3)cs2)cc1
- residual activity (MYO3B (human)): 98.7%
- residual activity (PBK (human)): 100%
- residual activity (MST1R (human)): 92.5%
- residual activity (PRKX (human)): 99.6%
- residual activity (TEK (human)): 104%
- residual activity (ULK3 (human)): 94.4%
- residual activity (PRKG1 (human)): 94.1% and 98.5%
- residual activity (JAK2 JH1 JH2 (human)): 101%
- residual activity (CSF1R (human)): 104%
- residual activity (EPHA6 (human)): 101%
- residual activity (TEC (human)): 120%
- residual activity (MAP4K2 (human)): 103%
- residual activity (CSNK1D (human)): 105%
- residual activity (CHUK (human)): 104%
- residual activity (PRKCE (human)): 99.6%
- residual activity (STK38 (human)): 98.2%
- residual activity (OXSR1 (human)): 88.8%
- residual activity (IGF1R (human)): 102%
- residual activity [1]: 97.1%
- residual activity (NEK2 (human)): 110%
- residual activity (PRKACG (human)): 112%
- residual activity (TLK2 (human)): 121%
- residual activity (AXL (human)): 98.5%
- residual activity (DYRK2 (human)): 91.2%
- residual activity (CLK1 (human)): 104%
- residual activity (BMX (human)): 103%
- residual activity (MAPK11 (human)): 105%
- residual activity (EPHB4 (human)): 89.6%
- residual activity (MARK4 (human)): 103%
- residual activity (ABL2 (human)): 93.4%
- residual activity (EPHB2 (human)): 101%
- residual activity (PRKG2 (human)): 92.9%
- residual activity (CHEK2 (human)): 97.9%
- residual activity (DYRK1A (human)): 96.6%
- residual activity (MAP3K3 (human)): 101%
- residual activity (CDK4 CCND1 (human)): 108%
- residual activity (ULK2 (human)): 101%
- residual activity (CAMKK2 (human)): 101%
- residual activity (PRKCI (human)): 99.5%
- residual activity (PAK1 (human)): 99.4%
- residual activity (GSG2 (human)): 100%
